Measurements as given in patent US12280040B2, “Compositions and methods of a dihydroisoxazole compound that reduces ectoparasite infestations on fish” (EVAH Atlantic Inc., priority 2023, dated 2025).

Test system: copepodid stage of sea lice
Experiment: Bath test against copepodid stage of sea lice
Format: in vivo
Conditions: in a bath at similar dosage
Source text: While compounds in this class act with similar modes of action (in this case on the gamma-aminobutyric acid (GABA) and glutamate gated chloride channels), differences do exist among them that influence pharmacological activity.

C#CCNC(=O)CNC(=O)c1sc(C2=NOC(c3cc(Cl)cc(Cl)c3)(C(F)(F)F)C2)cc1C (stereo not shown)
activity against the copepodid stage of sea lice: inactive
